We go through 9 molecules from ChEMBL document CHEMBL1152731, “Design, synthesis, and anti-HIV activity of 4'-modified carbocyclic nucleoside phosphonate reverse transcriptase inhibitors” (Bioorg Med Chem, 2009).

For data set [1], the system named is Human immunodeficiency virus 1. The data set can be described thus: Antiviral activity against HIV1 3a with reverse transcriptase M184V mutation in human MT2 cells assessed as inhibition of viral-induced cytopathic effect by XTT assay relative to wild type. Format: functional. (In general: Protection from cytopathic effect is a common read-out in antiviral testing.)

Data set [2] can be described thus: Cytotoxicity against human MT2 cells after 5 days. Format: cell-based.
The subject of data set [3] is Human immunodeficiency virus 1. Nature of the data set: Antiviral activity against HIV1 3a with reverse transcriptase K65R mutation in human MT2 cells assessed as inhibition of viral-induced cytopathic effect by XTT assay relative to wild type. Format: functional.
Data set [4] deals with Human immunodeficiency virus 1. The data set can be described thus: Antiviral activity against HIV1 3a infected human MT2 cells assessed as inhibition of viral-induced cytopathic effect after 3 days by XTT assay. Format: functional, organism-based. As to conditions: Human immunodeficiency virus 1, 3a, MT2, 72 h.
Data set [5] deals with Human immunodeficiency virus type 1 reverse transcriptase (Human immunodeficiency virus 1, UniProt Q72547). The data set can be described thus: Inhibition on HIV1 reverse transcriptase p66/p51.

`Nc1ncnc2c1ncn2[C@H]1C=C[C@@H](OCP(=O)(O)O)O1`: the “fold change (FC)” value in data set [1] and in data set [3] was 2.9 throughout. In addition, the CC50 at 120 h in data set [2] is greater than 1000 µM.
For the molecule `Nc1ncnc2c1ncn2[C@H]1C=C[C@@H](OCP(=O)(O)O)C1`, the concentration giving a half-maximal response (EC50) in data set [4] amounted to 52 µM.
In the case of `C[C@@]1(OCP(=O)(O)O)C=C[C@H](n2cnc3c(N)ncnc32)C1`, in data set [4], the EC50 came out at 244 µM.
Regarding `C=C[C@@]1(OCP(=O)(O)OP(=O)(O)OP(=O)(O)O)C=C[C@H](n2cnc3c(N)ncnc32)C1`, 0.62 µM corresponded to half-maximal inhibition in data set [5] (IC50).
Turning to `C#C[C@@]1(OCP(=O)(O)O)C=C[C@H](n2cnc3c(N)ncnc32)C1`, the “fold change (FC)” value in data set [1] was greater than 30; in data set [3], 2.2. This molecule also displayed a CC50 at 120 h in data set [2] of 1450 µM. Also, the EC50 in data set [4] was 16 µM. In addition, half-maximal inhibition in data set [5] (IC50) was put at 0.13 µM.
Turning to `Nc1nc(NC2CC2)c2ncn([C@H]3C=C[C@@H](CO)C3)c2n1` [ABACAVIR], the “fold change (FC)” value in data set [1] is recorded as 7.1; in data set [3], 3.8. For the same molecule, the concentration for a half-maximal effect (EC50) in data set [4] came to 0.32 µM. This molecule showed a half-inhibitory concentration (IC50) in data set [5] of 0.13 µM.
Take `Nc1ncnc2c1ncn2[C@@H]1O[C@H](OCP(=O)(O)O)C=C1F` [GS-9148]: the figures for the “fold change (FC)” value in data set [1] and in data set [3] were 0.8 and 1.1, respectively. Further, the cytotoxic concentration (CC50) at 120 h in data set [2] was greater than 1000 µM.
As to `C[C@H](Cn1cnc2c(N)ncnc21)OCP(=O)(O)O` [TENOFOVIR ANHYDROUS], the “fold change (FC)” value was 0.7 in data set [1] and 4.3 in data set [3]. The CC50 at 120 h in data set [2] is greater than 1000 µM.
Taken in the same sequence, the figures for `Cc1cn([C@H]2C[C@H](N=[N+]=[N-])[C@@H](CO)O2)c(=O)[nH]c1=O` [ZIDOVUDINE] were 0.7, 1.2 and greater than 200 µM.

As a reminder, the CC50 is the concentration at which the toxic effect on the cells reaches its halfway point. Lower therefore signals greater toxicity to the cells. In general, EC50 refers to the concentration needed to bring the measured effect to its halfway point. What is called IC50 is the concentration at which inhibition is half-maximal. High values mean weaker potency, low ones greater potency.
